The results in this text go back to patent US5508299A, “Imidazolyl-substituted cyclohexane derivatives” (Bayer Aktiengesellschaft, priority 1992, dated 1996).

One test concerns the target T1, angiotensin II receptor (Bos taurus, UniProt P25104).
T1 construct: partially purified membrane fractions of bovine AGC using radioactive angiotensin II; from tissue; host or cells: bovine adrenal gland cortex, partially purified membrane fractions
T1 sequence (P25104 1-359): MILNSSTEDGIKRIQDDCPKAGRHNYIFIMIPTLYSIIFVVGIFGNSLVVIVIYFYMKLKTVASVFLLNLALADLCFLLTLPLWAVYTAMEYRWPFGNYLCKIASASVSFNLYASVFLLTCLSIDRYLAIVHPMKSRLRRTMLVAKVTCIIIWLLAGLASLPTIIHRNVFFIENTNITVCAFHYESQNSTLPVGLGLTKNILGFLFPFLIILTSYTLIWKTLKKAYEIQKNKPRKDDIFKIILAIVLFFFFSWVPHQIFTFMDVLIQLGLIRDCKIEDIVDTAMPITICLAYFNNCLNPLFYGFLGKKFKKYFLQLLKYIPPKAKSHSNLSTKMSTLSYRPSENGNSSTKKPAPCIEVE
The test is described as follows: Angiotensin II receptor binding in membrane fractions of the adrenal cortex (bovine). Particulars: bovine adrenal cortex membranes; 3H-angiotensin II (3-5 nM); 60 min, room temperature, pH 7.2. An excerpt:
Interaction of the compounds according to the invention with the angiotensin II receptor in membrane fractions of the adrenal cortex (bovine)
Adrenal gland cortices from cattle (AGCs), which have been freshly removed and carefully freed from gland medulla, are comminuted in sucrose solution (0.32M) with the aid of an Ultra-Turrax (Janke & Kunkel, Staufen i.B.) to give a coarse membrane homogenate and partially purified to give membrane fractions in two centrifugation steps.
The receptor binding investigations are carried out on partially purified membrane fractions of bovine AGC using radioactive angiotensin II in an assay volume of 0.25 ml, which specifically contains the partially purified membranes (50-80 μg), ^3 H-angiotensin II (3-5 nM), test buffer solution (50 mM Tris, pH 7.2, 5 mM MgCl2) and the substances to be investigated. After an incubation period of 60 min at room temperature, the unbound radioactivity of the samples is separated by means of moistened glass fibre filters (Whatman GF/C) and the bound radioactivity is measured […] in a scintillation cocktail after washing the protein with ice-cold buffer solution (50 mM Tris/HCl, pH 7.4, 5% PEG 6000). The raw data were analysed using computer programs to give Ki or IC50 values (K1 : IC50 values corrected for the radioactivity used; IC50 values: concentration at which the substance to be investigated causes a 50% inhibition of the specific binding of the radioligand).

Test [1] concerns contractions of isolated rabbit aorta rings induced by angiotensin II (AII). Put plainly: Inhibition of the vascular contraction induced by angiotensin II in isolated rabbit aorta rings in vitro. It is filed as cell-based. The following applies: Oryctolagus cuniculus, based on the 3rd = submaximal agonist concentration, read-out: IC50 against contractions induced by AII. As for the experimental part: Investigation of the inhibition of the contraction induced by agonists
Rabbits of either sex are stunned by a blow to the back of the head and bled out, or in some cases anaesthetised with Nembutal (about 60-80 mg/kg i.v.) and sacrificed by opening the thorax. The thorax aorta is removed, freed from adhering connective tissue, divided into ring segments 1.5 mm wide and individually transferred under an initial loading of about 3.5 g to 10 ml organ baths containing Krebs-Henseleit nutrient solution, aerated with 95% O2 /5% CO2 and temperature-controlled at 37° C., of the following composition: 119 mmol/l of NaCl; 2.5 mmol/l of CaCl2 ×2H2 O; 1.2 mmol/l of KH2 PO4; 10 mmol/l of glucose; 4.8 mmol/l of KCl; 1.4 mmol/l of MgSO4 ×7 H2 O and 25 mmol/l of NaHCO3.
The contractions are determined isometrically by means of Statham UC2 cells via bridge amplifiers (ifd Mulheim or DSM Aalen) and digitalised by means of A/D converters (System 570, Keithley Munich) and assessed. The agonist dose response curves (DRCs) are plotted hourly. With each DRC, 3 or 4 individual concentrations are applied to the baths at a 4 min interval. After the end of the DRC and subsequent washing-out cycles (16 times in each case about 5 sec/min with the abovementioned nutrient solution), a 28-minute resting or incubation phase follows, within which the contractions as a rule reach the starting value again.
The height of the 3rd DRC, in a normal case, is used as a reference quantity for the assessment of the test substance to be investigated in further runs, which substance is applied to the baths in the following DRCs in increasing dose in each case at the start of the incubation period. Each aorta ring is in this case stimulated for the whole day, always with the same agonist.
Agonists and their standard concentrations (administration volume per individual dose=100 μl):
To calculate the IC50 (concentration at which the substance to be investigated causes a 50% inhibition), the effect is in each case based on the 3rd=submaximal agonist concentration.

The test system of test [2] is smooth muscle cells from aortas of pigs. Put plainly: Inhibition of the proliferation of smooth muscle cells (3H-thymidine incorporation). It is filed as cell-based, pig. Particulars: porcine aortic smooth muscle cells. As for the experimental part:
Investigation of the inhibition of the proliferation of smooth muscle cells by the compounds according to the invention
To determine the antiproliferative action of the compounds, smooth muscle cells are used which are obtained from aortas of pigs by the media explant technique [R. Ross, J. Cell. Biol. 50, 172, 1971]. The cells are inoculated into suitable culture dishes, as a rule 96-hole plates, and cultured at 37° C. in 5% CO2 for 2-3 days in medium 199 containing 7.5% FCS and 7.5% NCS, 2 mmol L-glutamine and 15 mmol HEPES, pH 7.4. The cells are then synchronised for 2-3 days by withdrawal of serum and then stimulated into growth using serum or other factors. Test compounds are simultaneously added. After 16-20 hours, 1 μCi ^3 H-thymidine is added and after a further 4 hours the incorporation of this substance into the TCA-precipitatable DNA of the cells is determined.
To determine the IC50 values, the active compound concentration is calculated which, on sequential dilution of the active compound, causes half-maximal inhibition of the thymidine incorporation produced by 1% FCS.

Molecules are shown by their SMILES.

One may read the Ki as a measure of affinity in units of concentration, obtained from inhibition or displacement. A higher Ki goes with lower affinity. As for `CCCCc1nc(Cl)c(C=O)n1Cc1ccc([C@@H]2CCCC[C@H]2c2nnn[nH]2)cc1` (relative stereo) [Example 16, 5-{trans-2-[4-(2-Butyl-4-chloro-5-formyl-imidazol-1-yl-methyl)-phenyl]-cyclohex-1-yl}-tetrazole], the Ki on angiotensin II receptor worked out at 440 nM.
As usually defined, the IC50 is the point on the concentration scale where inhibition reaches its midpoint. With `CCCCc1nc(Cl)c(C(=O)O)n1Cc1ccc([C@@H]2CCCC[C@H]2C(=O)O)cc1` (relative stereo) [Example 4], the concentration for half-maximal inhibition (IC50) in test [1] was 1400 nM.
Regarding `CCCCc1nc(Cl)c(CO)n1Cc1ccc(C2CCCCC2C(=O)N[C@H](CO)c2ccccc2)cc1` (single isomer, unassigned) [Example 10], the “Inhibition [%] at 10^-6 M” value in test [2] is given as 12%.
The same measure, in the same setting: the same measure for `CCCCc1nc(Cl)c(CO)n1Cc1ccc(C2CCCCC2C(=O)N[C@H](CO)c2ccccc2)cc1` (single isomer, unassigned) [Example 11]: 100%.
Take `CCCCc1nc(Cl)c(CO)n1Cc1ccc([C@@H]2CCCC[C@H]2C(=O)NS(=O)(=O)c2ccc(C)cc2)cc1` (relative stereo) [Example 9]: in test [1], the IC50 came out at 920 nM. This molecule also came in with a Ki on angiotensin II receptor of 120 nM.
Regarding `CCCCc1nc(Cl)c(C=O)n1Cc1ccc(C2CCCCC2C(=O)N[C@H](CO)c2ccccc2)cc1` (single isomer, unassigned) [Example 6], the “Inhibition [%] at 10^-6 M” value in test [2] is listed as 41%.
Same read-out and setting: the same measure for `CCCCc1nc(Cl)c(C=O)n1Cc1ccc(C2CCCCC2C(=O)N[C@H](CO)c2ccccc2)cc1` (single isomer, unassigned) [Example 7]: 100%.
As for `CCCCc1nc(Cl)c(C(=O)O)n1Cc1ccc([C@@H]2CCCC[C@H]2C(=O)NS(=O)(=O)c2ccc(C)cc2)cc1` (relative stereo) [Example 13, N-(4-Tolylsulphonyl)-trans-2-[4-(2-butyl-4-chloro-5-carboxy-imidazol-1-yl-methyl)phenyl]-cyclohexane-1-carboxamide], in test [1], the IC50 amounted to 240 nM. In addition, affinity at angiotensin II receptor was put at a Ki of 72 nM.
